Results reported in PubChem BioAssay (NCI).
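1) Cells in 96-well plates. 2) Compound, 48 h, 5 concentrations. 3) Linear interpolation between surrounding doses. 4) Unreached endpoint = highest concentration. GI50 = concentration required for 50% inhibition of growth. TGI: total growth inhibition.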

System: MDA-MB-468 breast
Assay: DTP human tumour cell line panel, 48 h

| SMILES | GI50 | TGI |
| --- | --- | --- |
| Cc1ccc(NC(=O)Cn2c(Br)nc3c2c(=O)n(C)c(=O)n3C)cc1 | 10.1 µM | 23.2 µM |
| COc1cc(S(C)(=O)=O)ccc1Nc1nc2ccc(-c3ccc(NC(=O)[C@H](C)c4ccc(F)cc4)cc3)cn2n1 | 68.6 µM | > 100 µM |
| CCCCCCN(CCCCCC)CC(O)c1ccc2c3c(cccc13)CC2 (stereo not drawn) | 3.43 µM | 14.4 µM |
| NC(=O)c1ccc(C2C3=C(CCCC3=O)OC3=C2C(=O)c2ccccc2C3=O)cc1 (stereo not drawn) | 0.201 µM | 0.649 µM |
| COC(=O)CCC1=C(C)/C(=C/c2[nH]c(-c3ccc[nH]3)cc2OC)N=C1C | 1.14 µM | 3.18 µM |
| COc1cc(Cn2c(-c3nonc3N)nc3ccccc32)ccc1C | 0.228 µM |  |
| Cc1cc(N/N=C/c2nc(-c3ccc(Cl)cc3)oc2C)c2cc(Cl)ccc2n1 | 1.78 µM | 3.55 µM |
| CCn1c2ccc(/C=N/OCCCN(C)C)cc2c2cc(/C=N/OCCCN(C)C)ccc21 | 1.38 µM | 3.05 µM |
| COc1cc2nc(-c3ccc(C(F)(F)F)cc3)cc(OCCCN3CCCCC3)c2cc1OC | 1.03 µM | 3.29 µM |
| C/C(=N\NC(N)=S)c1nc2ccc(Cl)cc2[nH]1 | 1.97 µM | 19.1 µM |
| COc1ccc(C(=O)N2c3ccccc3Sc3ccccc32)c(C(F)(F)F)c1 | 0.364 µM | 41.5 µM |
| Cc1cc(-c2nnc3n2CCCCC3)c(C)n1-c1ccc(Cl)c(Cl)c1 | 2.66 µM | 14 µM |
| COc1ccc(C2CC(n3nnnc3-c3ccccc3)=NN2)cc1 (stereo not drawn) | 3.98 µM | 47.6 µM |
| CC(=O)Nc1ccc(NC(=O)Nc2cccc(-c3nc(-c4ccc(NC(=O)c5cccs5)cc4Cl)no3)c2)cc1C(F)(F)F | 0.449 µM | 1.73 µM |
| CC1=C2C(=O)[C@](C)(CO)C=C2C(=O)[C@](C)(O)C12CC2 | 1.52 µM | 3.16 µM |
| CCN(CCNc1ccc(C)c2sc3ccccc3c(=O)c12)CC(C)(C)O | 1.74 µM | 5.03 µM |
| O=C1CCCN1CC#CCN1CCCC1 | > 100 µM | > 100 µM |
